According to ChEMBL document CHEMBL1157334, “Neuroprotective diterpenes from the fruiting body of Antrodia camphorata” (2006):

Experiments:
[1] = Neuroprotective effect against amyloid beta(25 to 35)-induced cell death in Harlan Sprague-Dawley rat pups cortical neurons assessed as cell viability at 1 uM treated 2 hrs before amyloid beta(25 to 35) treatment after 40 hrs by MTT assay; assay type: functional, Cortical neurone; conditions: for viability at 1 µM: Rattus norvegicus, Harlan Sprague-Dawley, Cortical neurone, read-out: Activity
[2] = Neuroprotective effect against amyloid beta(25 to 35)-induced cell death in Harlan Sprague-Dawley rat pups cortical neurons assessed as cell viability at 5 uM treated 2 hrs before amyloid beta(25 to 35) treatment after 40 hrs by MTT assay; assay type: functional, Cortical neurone; conditions: for viability at 5 µM: Rattus norvegicus, Harlan Sprague-Dawley, Cortical neurone, read-out: Activity
[3] = Neuroprotective effect against amyloid beta(25 to 35)-induced cell death in Harlan Sprague-Dawley rat pups cortical neurons assessed as cell viability at 10 uM treated 2 hrs before amyloid beta(25 to 35) treatment after 40 hrs by MTT assay; assay type: functional; conditions: Cortical neurone, read-out: Activity

Row | SMILES | viability at 1 µM [1] [%] | viability at 5 µM [2] [%] | viability at 10 µM [3] [%] | Activity [1] [%] | Activity [2] [%]
1 | C=C1CC[C@@H]2[C@](C)(CO)[C@H](O)CC[C@@]2(C)[C@@H]1/C=C/C1=CCOC1=O | 40.7 | 35.7 | 30.8 |  | 
2 | CC(=O)N[C@@H](CC(=O)O)C(=O)N[C@@H](CCC(=O)O)C(=O)N[C@H](C(=O)N[C@H](C=O)CC(=O)O)C(C)C | 35.8 | 30.2 | 24.5 |  | 
3 | C=C1CC[C@H]2[C@@](C)(CO)CCC[C@]2(C)[C@H]1CCC1CCOC1=O (some centres not stated) | 34.4 | 25.3 | 28.1 |  | 
4 | C=C1CC[C@H]2[C@@](C)(CO)CCC[C@]2(C)[C@H]1CCC1=CCOC1=O | 41.2 | 34.8 | 28.9 |  | 
5 | C=C1CC[C@@H]2[C@](C)(CC[C@H](O)[C@]2(C)CO)[C@H]1/C=C/C1CCOC1=O (stereo in doubt; 2) |  |  |  | 43.8 | 34.9
6 | C=C1CC[C@@H]2[C@](C)(CC[C@H](O)[C@]2(C)CO)[C@H]1/C=C/C1CCOC1=O (stereo in doubt; 3) | 45.1 | 39.6 | 36.7 |  | 
